Test system: CALHM1
Experiment: CALHM1 N-glycosylation, western blot of transfected HEK293 cells
Assay type: cell-based, human
Details: HEK293 cells transfected with Myc-CALHM1 for six hours, 10 μg/ml tunicamycin, anti-Myc WB
Description: Western blotting (WB) and immunoprecipitation (IP) assays. For WB, cells were washed with PBS and solubilized in ice-cold HEPES buffer (25 mM HEPES, pH 7.4, 150 mM NaCl, 1X Complete protease inhibitor cocktail, Roche) containing 1% SDS. Ten micrograms of extracts was analyzed by SDS-PAGE. A standard ECL detection procedure was then used. For multimerization analyses and IP, cells were harvested six hours after transfection with the indicated CALHM1 cDNAs. Cells were then solubilized for 2 h at 4° C. in HEPES buffer containing 1% Nonidet P-40. Cell extracts were pre-cleared by centrifugation at 10,000 rpm for 5 min. For multimerization analyses, cell extracts were analyzed by WB in the absence (non-reducing conditions) or presence of 5% β-mercaptoethanol (reducing conditions). For IP, supernatants were immunoprecipitated with immobilized anti-Myc antibody, as per supplier's instructions (ProFound Mammalian c-Myc Tag IP Kit, Pierce). Total extracts and immunoprecipitated proteins were then analyzed by WB.
CALHM1 deglycosylation. […] CALHM1-transfected HT-22 cells were solubilized and incubated for 16 h at 37° C. in digestion buffer (50 mM NaH2PO4, pH 7.4, 20 mM EDTA, 0.2% SDS, and 1% β-mercaptoethanol) in the absence or presence of PNGase F. Cell lysates were then analyzed by WB using anti-Myc antibody, as described above.

Q: Which “appearance of the CALHM1 band of higher molecular weight (N-glycosylated form)” value does the source give for tunicamycin here?
A: completely inhibited

— patent US8420309B2, “Method of screening compounds using CALHM (FAM26C)” (The Feinstein for Medical Research, priority 2007, dated 2013)
